Values joined by “and” are separate entries in the source; they are usually repeats but may differ in a detail not shown here. Identical values can stand only once.

For this test, the system named is 377384-186-R-J1-PDC complex spheroid viability. The experiment in a line: Anticancer human tumor 377384-186-R-J1-PDC patient-derived pancreatic carcinoma cell line growth inhibition [CLK]. The settings on record: for viability, T/C: stronger effect = lower value. The text has this: A high-throughput screen of multi-cell type tumor spheroids was designed to identify active combinations of […] and targeted small molecules. Complex spheroids include a stromal component modeled by human endothelial cells (HUVEC) and fibroblasts modeled by human mesenchymal stem cells (MSCs). The concentration ranges selected for each drug and investigational agent were based upon clinically achievable concentrations if the clinical Cmax of the agent was known.
Compounds. The drugs and investigational agents: cirtuvivint (SM08502; NSC835563), CC-671 (NSC850746), vemurafenib (NSC761431), tapotoclax (NSC804041), sotorasib (NSC818433), adagrasib (NSC831453), MRTX-1133 (NSC836407), BAY2416964 (NSC825713), copanlisib (NSC816437), inavolisib (NSC800729), abemaciclib (NSC768073), osimertinib (NSC779217), entinostat (NSC756642), eltanexor (KPT-8602, NSC794443), venetoclax (NSC766270), ceralasertib (NSC777638), bortezomib (NSC756655), olaparib (NSC753686), talazoparib (NSC767125), alisertib (NSC759677), peposertib (NSC802822), gemcitabine (NSC613327), 5-fluorouracil (NSC19893), SN-38 (NSC673596), oxaliplatin (NSC266046), paclitaxel (NSC125973), and doxorubicin (NSC123127), were obtained from the National Cancer Institute (NCI) Developmental Therapeutics Program Chemical Repository. The FDA-approved anticancer drug set is available from the Developmental Therapeutics Program at https://dtp.cancer.gov/organization/dscb/obtaining/available plates.htm. […] The stock solutions were prepared in dimethyl sulfoxide (DMSO, Sigma-Aldrich, St. Louis, MO, cat. D2650), except for the platinum complexes which were prepared in saline (Quality Biological, Gaithersburg, MD, cat. 114-055-101), at 800-fold the tested concentration and stored at -70 degrees C prior to their use. All drugs and investigational agents were tested over a range starting from a high concentration at or near the clinical Cmax and decreasing in half-log increments. If the clinical Cmax for an agent had not been determined, the highest concentration tested was 10 microM.
Cell Culture. All cells were maintained in an incubator at 37 degrees C and 5% CO2 with 95% humidity. The PDC lines were cultured according to standard operating procedures established by the NCI PDMR. Briefly, all PDCs were thawed and cultured in Matrigel-coated flasks prepared with a working solution of 1X Ham's F-12 nutrient mix, without supplementation (Invitrogen, Waltham, MA, cat. 11765054), 100 U/mL penicillin-streptomycin (Invitrogen, cat. 15140122), and 2.5% Matrigel (Corning Inc., Corning, NY, cat. 354248) for the first three passages. The 947758-054-R-J2-PDC line was cultured in 6B/Colon 1A media, which includes advanced DMEM/F-12 (Thermo Fisher Scientific, cat. 12634028), 10 mM HEPES (Thermo Fisher Scientific, cat. 15630080), 1X GlutaMAX supplement (Thermo Fisher Scientific, cat. 35050061), 0.1 mg/mL primocin (InvivoGen, cat. ant-pm-2), 10% defined fetal bovine serum, heat inactivated (HyClone Laboratories Inc., cat. SH30070.03HI), 1.25 mM N-Acetyl-L-cysteine (Sigma-Aldrich, cat. A9165), 10 mM nicotinamide (Sigma-Aldrich, cat. N0636), 1X B-27 supplement (Thermo Fisher Scientific, cat. 17504044), 1X N-2 supplement (Thermo Fisher Scientific, cat. 17502048), and 10 microM Y-27632 dihydrochloride (Tocris Bioscience, cat. 1254). The 876862-298-R-J1-PDC was cultured in 6E media, which includes all 6B/Colon 1A media components plus 50% L-WRN conditioned media (ATCC, cat. CRL-3276), 50 ng/mL recombinant human EGF recombinant protein (hEGF; Thermo Fisher Scientific, cat. PHG0311), 10 ng/mL recombinant human fibroblast growth factor 10 (hGFG-10; PeproTech, cat. 100-26), 1 ng/mL recombinant human fibroblast growth factor 2 (hFGF-2; PeproTech, cat. 100-18B), and 1 µM prostaglandin E2 (PGE2; Tocris, cat. 2296). The 227483-062-R1-J1-PDC line was cultured in Panc media, containing all 6E components except hFGF-2, with the addition of 500 nM SB-431542 (Selleckchem, cat. S1067) and 10 nM gastrin (Tocris, cat. 3006). […]
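Note: spheroids exposed to agents for 7 days before reading.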
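Throughout, for viability, T/C: luminescence signal used as a stand-in for viable cells.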

On to `CCc1c2c(nc3ccc(O)cc13)-c1cc3c(c(=O)n1C2)COC(=O)[C@]3(O)CC`, for which the viability, T/C reads like this: (compound 0.00316 µM) 30% and 30.1%; (compound 0.01 µM) 17.2% and 14.6%; (compound 0.0316 µM) 6.41% and 5.33%; (compound 0.1 µM) 3.96% and 2.67%; (compound 0.316 µM) 1.37% and 1.52%; (compound 1 µM) 0.82% and 0.63%. For the same compound, under “curve of compound”, the IC50 was less than 0.00316 µM.
As for `COC1C=CCC(C)C(C)S(=O)(=O)NC(=O)c2ccc3c(c2)N(CC2CCC21)CC1(CCCc2cc(Cl)ccc21)CO3` (stereo unspecified) + CN1CCN(c2cc(C(=O)Nc3cc4cc(-c5cnn(C)c5)ccc4cn3)ccn2)CC1, the IC50 is, setting by setting: (curve of first compound, second compound 0.0316 µM) 5.48 µM; (curve of first compound, second compound 0.1 µM) 4.95 µM; (curve of first compound, second compound 0.316 µM) less than 0.0316 µM; (curve of first compound, second compound 1 µM) less than 0.0316 µM; (curve of first compound, second compound 3.16 µM) less than 0.0316 µM; (curve of first compound, second compound 10 µM) less than 0.0316 µM. Besides, the viability, T/C by setting is: (second compound 0.0316 µM, first compound 0.0316 µM) 114%; (second compound 0.0316 µM, first compound 0.1 µM) 95.2%; (second compound 0.0316 µM, first compound 0.316 µM) 96.5%; (second compound 0.0316 µM, first compound 1 µM) 102%; (second compound 0.0316 µM, first compound 3.16 µM) 84.9%; (second compound 0.0316 µM, first compound 10 µM) 11.8%. Moreover, the viability, T/C by setting is: (second compound 0.1 µM, first compound 0.0316 µM) 115%; (second compound 0.1 µM, first compound 0.1 µM) 69.2%; (second compound 0.1 µM, first compound 0.316 µM) 98%; (second compound 0.1 µM, first compound 1 µM) 84.5%; (second compound 0.1 µM, first compound 3.16 µM) 76.8%; (second compound 0.1 µM, first compound 10 µM) 10.2%. The viability, T/C is 32.5% (second compound 0.316 µM, first compound 0.0316 µM); 20.9% (second compound 0.316 µM, first compound 0.1 µM); 24.3% (second compound 0.316 µM, first compound 0.316 µM); 20% (second compound 0.316 µM, first compound 1 µM); 20.5% (second compound 0.316 µM, first compound 3.16 µM); 3.02% (second compound 0.316 µM, first compound 10 µM). Further, the viability, T/C was 0.47% (second compound 1 µM, first compound 0.0316 µM); 1.66% (second compound 1 µM, first compound 0.1 µM); 1.4% (second compound 1 µM, first compound 0.316 µM); 1.15% (second compound 1 µM, first compound 1 µM); 0.84% (second compound 1 µM, first compound 3.16 µM); 0.75% (second compound 1 µM, first compound 10 µM). For the same compound, the viability, T/C is, setting by setting: (second compound 3.16 µM, first compound 0.0316 µM) 0.58%; (second compound 3.16 µM, first compound 0.1 µM) 0.33%; (second compound 3.16 µM, first compound 0.316 µM) 0.31%; (second compound 3.16 µM, first compound 1 µM) 0.37%; (second compound 3.16 µM, first compound 3.16 µM) 0.49%; (second compound 3.16 µM, first compound 10 µM) 0.39%. Moreover, the viability, T/C (second compound 10 µM, first compound 0.0316 µM) is 0.42%; the viability, T/C (second compound 10 µM, first compound 0.1 µM) is 0.68%; the viability, T/C (second compound 10 µM, first compound 0.316 µM) is 0.44%; the viability, T/C (second compound 10 µM, first compound 1 µM) was 0.59%; the viability, T/C (second compound 10 µM, first compound 3.16 µM) is 0.53%; the viability, T/C (second compound 10 µM, first compound 10 µM) was 0.17%.
Consider `Nc1ccccc1NC(=O)c1ccc(CNC(=O)OCc2cccnc2)cc1`, for which the viability, T/C runs as follows: (compound 0.0316 µM) 85.8% and 79.5%; (compound 0.1 µM) 85.5% and 77.1%; (compound 0.316 µM) 65.3% and 57.9%; (compound 1 µM) 35.8% and 30.4%; (compound 3.16 µM) 13.3% and 12.8%; (compound 10 µM) 2.14% and 1.31%. Besides, the IC50 (curve of compound) is 0.589 µM and 0.452 µM.

In general, viability, T/C refers to the ratio of treated to control. As usually defined, the IC50 is the concentration needed to halve the response being measured.

The values are drawn from PubChem BioAssay AID2060616 (Molecular Pharmacology Branch, DTP, NCI, 2025).
